Assays:
[1] = test system: HCV genotype 1b replicon NS5A Y93C; assay: Transient HCV 1b replicon, NS5A mutant Y93C; assay type: cell-based; details: Hepatitis C virus, read-out: EC50 Y93C
From the text: (§1) In a transient set-up, a Huh-7 lunet hepatoma cell line was transiently transfected with an autonomously replicating RNA encoding a bi-cistronic expression construct. This construct comprises a firefly luciferase reporter gene preceding the NS3-NS5B subgenomic region of HCV (genotype 1a H77 or 1b Con1). Translation of the HCV subgenomic region is mediated by an internal ribosome entry site of encephalomyocarditis virus. The construct is furthermore flanked by 5′ and 3′ untranslated regions of HCV (genotype 1a H77 or 1b Con 1, respectively), which allow for replication of the RNA.
(§2) In addition to the wild-type constructs, site-directed mutations were introduced into the transient HCV genotype 1b replicon in the gene encoding for the non-structural protein 5A (NS5A). More precisely, amino acid residues 28, 30, 31 and 93 in NS5A were independently altered.
(§3) Cells were plated in 384 well plates in the presence of test and control compounds, which were added in various concentrations. Following an incubation of two days, replication of the HCV subgenomic replicon RNA was measured by assaying luciferase activity (using standard luciferase assay substrates and reagents and a Perkin Elmer ViewLux™ ultraHTS microplate imager). HCV subgenomic replicon containing cells in the control cultures have high luciferase expression in the absence of any inhibitor. The inhibitory activity of the compound was monitored, enabling a dose-response curve for each test compound. EC50 values were then calculated, which represent the amount of compound required to decrease the level of detected luciferase activity by 50%, or more specifically, to reduce the ability of the genetically linked HCV subgenomic RNA to replicate.

[2] = Counterscreen MT4-LTR-Luc; assay type: cell-based; details: human
From the text: (§4) Counterscreen cell lines included a Huh-7 hepatoma cell line containing a human cytomegalovirus major immediate-early promoter-Luc construct (Huh7-CMV-Luc) and an MT4 T-cell line containing a long terminal repeat-Luc reporter (MT4-LTR-Luc).

[3] = Pharmacokinetic analysis after single oral administration, liver concentration; assay type: in vivo; details: male Sprague-Dawley rats, 10 mg/kg oral, solution in PEG400
Protocol: Compounds were dosed orally as a solution in PEG400 to male Sprague-Dawley rats at a dose level of 10 mg/kg. At serial time points, after dosing, the animals were sacrificed and liver samples collected. All samples were analyzed using a qualified research LC-MS/MS method to determine the concentration of the tested compounds in liver. Non-compartmental analysis using the lin/log trapezoidal rule was performed using WinNonlin™ Professional (Version 5.2.1).

[4] = test system: HCV genotype 1a H77 replicon (Huh-7 lunet cells); assay: HCV replicon assay, transient transfection, genotype 1a; assay type: cell-based; details: Hepatitis C virus, 48 h, genotype 1a H77, two days incubation, luciferase
From the text: as §1, §3
(§5) Where a compound of formula (I) was tested more than once in the transient replicon assay, the average of all test results is given in Table 3.

[5] = test system: HCV genotype 1b replicon NS5A L31F; assay: Transient HCV 1b replicon, NS5A mutant L31F; assay type: cell-based; details: Hepatitis C virus, read-out: EC50 L31F
From the text: as §1, §2, §3

[6] = test system: HCV type 1b replicon (Huh-7 luc/neo cells); assay: HCV replicon assay, stable transfection (Huh-Luc, luciferase); assay type: cell-based; details: Hepatitis C virus, Huh-7, 72 h, three days incubation, average of all tests
From the text: The compounds of formula (I) were examined for inhibitory activity in the HCV replicon. This cellular assay is based on a bicistronic expression construct, as described by Lohmann et al. (Science (1999) 285: 110-113; Journal of Virology (2003) 77: 3007-3019) with modifications described by Krieger et al. (Journal of Virology (2001) 75: 4614-4624), and Lohmann et al. (Journal of Virology (2003) 77: 3007-3019) for genotype 1b and by Yi et al. (Journal of Virology (2004) 78: 7904-7915) for genotype 1a, in a multi-target screening strategy.
The method was as follows. The assay utilized the stably transfected cell line Huh-7 luc/neo (hereafter referred to as Huh-Luc). This cell line harbors an RNA encoding a bicistronic expression construct comprising the wild type NS3-NS5B regions of HCV type 1b translated from an Internal Ribosome Entry Site (IRES) from encephalomyocarditis virus (EMCV), preceded by a reporter portion (FfL-luciferase), and a selectable marker portion (neoR, neomycine phosphotransferase). The construct is flanked by 5′ and 3′ NTRs (non-translated regions) from HCV type 1b. Continued culture of the replicon cells in the presence of G418 (neoR) is dependent on the replication of the HCV RNA. The stably transfected replicon cells that replicate HCV RNA autonomously and to high levels, encoding inter alia luciferase, were used for screening the antiviral compounds.
The replicon cells were plated in 384 well plates in the presence of the test and control compounds which were added in various concentrations. Following an incubation of three days, HCV replication was measured by assaying luciferase activity (using standard luciferase assay substrates and reagents and a Perkin Elmer ViewLux™ ultraHTS microplate imager). Replicon cells in the control cultures have high luciferase expression in the absence of any inhibitor. The inhibitory activity of the compound was monitored on the Huh-Luc cells, enabling a dose-response curve for each test compound. EC50 values were then calculated, which represent the amount of compound required to decrease the level of detected luciferase activity by 50%, or more specifically, to reduce the ability of the genetically linked HCV replicon RNA to replicate.
Where a compound of formula (I) was tested more than once in the replicon assay, the average of all test results is given in this Table 2.

[7] = test system: HCV genotype 1b replicon NS5A L31M; assay: Transient HCV 1b replicon, NS5A mutant L31M; assay type: cell-based; details: Hepatitis C virus, read-out: EC50 L31M
From the text: as §1, §2, §3

[8] = Counterscreen Huh7-CMV-Luc; assay type: cell-based; details: human
From the text: as §4

[9] = test system: HCV genotype 1b replicon NS5A L28T; assay: Transient HCV 1b replicon, NS5A mutant L28T; assay type: cell-based; details: Hepatitis C virus, read-out: EC50 L28T
From the text: as §1, §2, §3

[10] = test system: HCV genotype 1b Con1 replicon (Huh-7 lunet cells); assay: HCV replicon assay, transient transfection, genotype 1b; assay type: cell-based; details: Hepatitis C virus, 48 h, genotype 1b Con1, two days incubation, luciferase
From the text: as §1, §3, §5

[11] = test system: HCV genotype 1b replicon NS5A R30H; assay: Transient HCV 1b replicon, NS5A mutant R30H; assay type: cell-based; details: Hepatitis C virus, read-out: EC50 R30H
From the text: as §1, §2, §3

[12] = test system: HCV genotype 1b replicon NS5A Y93H; assay: Transient HCV 1b replicon, NS5A mutant Y93H; assay type: cell-based; details: Hepatitis C virus, read-out: EC50 Y93H
From the text: as §1, §2, §3

[13] = test system: HCV genotype 1b replicon NS5A L31V; assay: Transient HCV 1b replicon, NS5A mutant L31V; assay type: cell-based; details: Hepatitis C virus, read-out: EC50 L31V
From the text: as §1, §2, §3

Row | Structure (SMILES) | EC50 [1] [nM] | CC50 [2] [nM] | Liver AUC [3] [ng·h/g] | EC50 [4] [nM] | EC50 [5] [nM] | EC50 [6] [nM] | EC50 [7] [nM] | CC50 [8] [nM] | EC50 [9] [nM] | EC50 [10] [nM] | EC50 [11] [nM] | EC50 [12] [nM] | EC50 [13] [nM]
1 | COC(=O)N[C@H](C(=O)N1CCC[C@H]1c1ncc(-c2ccc3cc(-c4ccc5nc([C@@H]6CCCN6C(=O)[C@@H](NC(=O)OC)C(C)C)[nH]c5c4)ccc3c2)[nH]1)C(C)C [Compound 3] | 0.012 | 5820 | 23157 | 0.051 | 0.032 | 0.007 | 0.184 | 7640 | 0.229 | 0.008 | 0.072 | 0.47 | 0.504
2 | COC(=O)N[C@H](C(=O)N1CCC[C@H]1c1ncc(-c2ccc(-c3ccc4nc([C@@H]5CCCN5C(=O)[C@@H](NC(=O)OC)[C@@H](C)OC)[nH]c4c3)cc2)[nH]1)[C@@H](C)OC [Compound 2] | 0.655 | > 984 | – | – | 1.81 | 0.54 | – | > 984 | 9.05 | 0.909 | 2.69 | 2.88 | 1.38
3 | CC[C@H](C)[C@H](NC(=O)OC)C(=O)N1CCC[C@H]1c1ncc(-c2ccc3cc(-c4ccc5[nH]c([C@@H]6CCCN6C(=O)[C@@H](NC(=O)OC)C(C)C)nc5c4)ccc3c2)[nH]1 [Compound 16] | < 0.013 | > 984 | 12630 | 0.098 | 0.017 | 0.003 | 0.093 | > 984 | 0.151 | 0.003 | 0.07 | 0.343 | 0.411
4 | CC[C@H](C)[C@H](NC(=O)OC)C(=O)N1CCC[C@H]1c1ncc(-c2ccc3cc(-c4ccc5nc([C@@H]6CCCN6C(=O)[C@@H](NC(=O)OC)[C@@H](C)CC)[nH]c5c4)ccc3c2)[nH]1 [Compound 8] | < 0.013 | > 984 | 50655 | 0.204 | 0.016 | 0.003 | 0.258 | > 984 | 0.206 | 0.005 | 0.116 | 0.587 | 0.311
5 | CC[C@H](C)[C@H](NC(=O)OC)C(=O)N1CCC[C@H]1c1nc2ccc(-c3ccc4cc(-c5cnc([C@@H]6CCCN6C(=O)[C@@H](NC(=O)OC)C(C)C)[nH]5)ccc4c3)cc2[nH]1 [Compound 13] | < 0.013 | > 984 | 51330 | 0.051 | < 0.013 | 0.002 | 0.053 | > 984 | 0.109 | 0.002 | 0.027 | 0.215 | 0.141
6 | COC(=O)N[C@H](C(=O)N1CCC[C@H]1c1ncc(-c2ccc(-c3ccc4nc([C@@H]5CCCN5C(=O)[C@@H](NC(=O)OC)C(C)C)[nH]c4c3)cc2)[nH]1)C(C)C [Compound 1] | 0.076 | > 984 | – | – | 0.775 | 0.058 | – | – | 4.12 | 0.058 | 0.6 | 1.33 | 1.06
7 | COC(=O)N[C@H](C(=O)N1CCC[C@H]1c1ncc(-c2ccc3cc(-c4ccc5nc([C@@H]6CCCN6C(=O)[C@@H](NC(=O)OC)[C@@H](C)OC)[nH]c5c4)ccc3c2)[nH]1)[C@@H](C)OC [Compound 4] | 0.013 | > 984 | 1539 | 0.033 | 0.02 | 0.012 | 0.052 | > 984 | 0.052 | 0.016 | 0.056 | 0.034 | 0.048
8 | COC(=O)N[C@H](C(=O)N1CCC[C@H]1c1nc2ccc(-c3ccc4cc(-c5cnc([C@@H]6CCCN6C(=O)[C@@H](NC(=O)OC)[C@@H](C)OC)[nH]5)ccc4c3)cc2[nH]1)C(C)C [Compound 11] | < 0.013 | > 984 | 7928 | 0.048 | 0.021 | 0.006 | 0.087 | > 984 | 0.117 | 0.012 | 0.05 | 0.167 | 0.141
9 | CC[C@H](C)[C@H](NC(=O)OC)C(=O)N1CCC[C@H]1c1ncc(-c2ccc3cc(-c4ccc5[nH]c([C@@H]6CCCN6C(=O)[C@@H](NC(=O)OC)[C@@H](C)OC)nc5c4)ccc3c2)[nH]1 [Compound 17] | 0.003 | 9300 | 4213 | 0.049 | 0.005 | 0.005 | 0.025 | 11100 | 0.037 | 0.005 | 0.036 | 0.034 | 0.037
10 | COC(=O)N[C@H](C(=O)N1CCC[C@H]1c1ncc(-c2ccc3cc(-c4ccc5nc([C@@H]6CCCN6C(=O)[C@@H](NC(=O)OC)[C@@H](C)OC)[nH]c5c4)ccc3c2)[nH]1)C(C)C [Compound 9] | < 0.013 | > 984 | 6202 | 0.03 | < 0.017 | 0.007 | 0.072 | > 984 | 0.081 | 0.007 | 0.045 | 0.042 | 0.086
11 | CC[C@H](C)[C@H](NC(=O)OC)C(=O)N1CCC[C@H]1c1nc2cc(-c3ccc4cc(-c5cnc([C@@H]6CCCN6C(=O)[C@@H](NC(=O)OC)[C@@H](C)OC)[nH]5)ccc4c3)ccc2[nH]1 [Compound 18] | 0.003 | 9680 | 14091 | 0.018 | 0.005 | 0.003 | 0.054 | 8680 | 0.041 | 0.004 | 0.039 | 0.08 | 0.052

Reference: patent US9427428B2, “Benzimidazole-imidazole derivatives” (Janssen Sciences Ireland UC, priority 2009, dated 2016)
